From PMC5882690, “Mechanical characteristics of beta sheet-forming peptide hydrogels are dependent on peptide sequence, concentration and buffer composition” (Royal Society Open Science, 2018)
Where a SMILES comes first, the peptide text is derived from it.

Legend:
Format in all cases: physicochemical
[1] = Fibre width of dried SAP hydrogels by scanning electron microscopy; conditions: SEM of critical-point-dried hydrogel, 15 mg ml^-1 in Tris–NaCl, ionic strength 140 mM, pH 7.2–8.0, assembled overnight; 25 fibre widths per picture, ImageJ; mean ± SD
Protocol: Nanofibrillar structure of SAP hydrogels was formed for scanning electron microscopy (SEM) (Zeiss SUPRA® 40VP) at a concentration of 15 mg ml^−1 in Tris–NaCl buffer to a final ionic strength of 140 mM and a final pH of 7.2–8.0, as described in table 1. SAP hydrogels were assembled overnight. Self-assembly was apparent due to the gelation and β-sheet formation of the fibrillar structure as described by Aggeli et al. and Carrick et al. (by circular dichroism, Fourier transform infrared spectroscopy and transmission electron microscopy) and was further confirmed in the present study for P11-4 and P11-8 (see electronic supplementary material, figures S4, S6 and S7). SAP hydrogels were fixed with a glutaraldehyde solution (4% in borate buffer, using 0.1 ml per 0.1 ml peptide hydrogel) for 24 h. Gels were then dehydrated by increasing ethanol concentration in steps (25%, 50%, 60%, 70%, 80%, 90%, 100% ethanol) at 15 min intervals. The last step (100% ethanol) was repeated three times. Afterwards, critical point drying (Balzers Union, CPD020) was applied to stabilize the natural three-dimensional network structure. Finally, the network structures were glued on an SEM stub with carbon tape and sputter coated with 2.5 nm gold–palladium (Thermo VG Scientific, Polaron, SC7620). […] Fibre diameters were analysed with IMAGEJ software. Twenty-five fibre widths were measured for each picture.

[2] = Oscillatory amplitude sweep (storage modulus G′ in linear viscoelastic region, yield point); conditions: for yield point YP / peptide hydrogel stiffness G′ / yield point YP (strain where G′ < 95% of original value): mean ± SD, n = 3; for peptide hydrogel stiffness G′: 140 mM ionic strength, assembled overnight; for peptide hydrogel stiffness G′ / yield point YP (strain where G′ < 95% of original value): 37°C
Protocol: […] The amplitude sweep tests were performed to measure storage moduli (G′) within the linear viscoelastic region. Calculations of the gel breaking points (yield points) were performed with MATLAB depending on the different peptide concentrations. Therefore, the yield strain was defined as the point where G′ is less than 95% of its original value. Oscillatory time sweep experiments were performed to study the gelation speed and hydrogel stiffness. Time sweeps up to 150 min measuring time using a frequency of 1 rad s^−1 and amplitude gamma of 0.05% were used. SAP hydrogel stiffness was determined after the equilibrium of the storage modulus (G′) was reached (t = 100 min). To determine the gelation speed, the slope of increasing storage modulus over time was calculated in the interval from t = 5 to 10 min after placing peptide solutions onto the rheometer.
To study SAP hydrogel stiffness within the linear viscoelastic region and gel breaking points according to the peptide concentrations, unary SAP hydrogels (300 µl) were prepared in vials at concentrations of 15 mg ml^−1, 20 mg ml^−1 and 30 mg ml^−1 by dissolving first the lyophilized peptides in 150 µl of buffer A and then adding 150 µl of peptide-specific Tris–NaCl buffer B according to table 1. Complementary SAP hydrogels (P11-13/14 and P11-28/29) were obtained by dissolving 150 µl of P11-13 in 0.1 M Tris buffer + 0.052 M NaCl pH 8 and 150 µl P11-14 in 0.055 M Tris buffer + 0.096 M NaCl pH 7.2 (table 1). The P11-13 and P11-14 solutions were then mixed (1 : 1) to obtain 300 µl of complementary SAP hydrogel with a final ionic strength of 140 mM and a pH of 7.2. All SAP hydrogels were allowed to assemble overnight.
To study the influence of divalent ions and different media on SAP hydrogel stiffness, gelation speed and gel breaking points (yield points), SAPs were prepared at a concentration of 15 mg ml^−1 in the different media, Tris–NaCl, Tris–MgSO4, DMEM or artificial saliva, according to table 1. All experiments were done at least in duplicate. Statistical evaluation was performed with GRAPHPAD PRISM version 6.0 based on a one-way ANOVA test followed by Tukey's multiple comparison test.

[3] = SAP hydrogel dissolution in PBS or TYSB medium (peptide content of supernatant); conditions: 37°C, 20 mg ml^-1 P11-4, 15 mg ml^-1 others, Qubit Protein Assay, mean ± SD, n = 3
Protocol: SAP hydrogel dissolution and degradation properties of the peptides in the presence and absence of neutrophilic elastase and microorganisms were measured by determining the peptide content of the supernatant. Therefore, SAPs were assembled in PBS at concentrations of 20 mg ml^−1 for P11-4 and 15 mg ml^−1 for P11-8, P11-13/14 and P11-28/29. The assay was performed in a 96-well plate with gel volumes of 100 µl well^−1. 86 units ml^−1 elastase (Innovative Research, USA) (100 µg ml^−1) were added to the assembled peptides in PBS solution. After 24 h incubation at 37°C and 5% CO2, 10 µl of the supernatant was sterilely removed after 24 and 168 h and measured indirectly by monomeric peptide concentration in the supernatant using the Qubit® Protein Assay (Q33211; Thermo Fisher; fluorescence at 485/590 nm) and transferred back for the remainder of the experiment allowing peptide hydrogel degradation measurement without disturbing the hydrogel to buffer fluid balance. The measurements are based on the fact that degraded peptides cause disassembly of the fibrils, as assembly rules are no longer given, resulting in an increase in monomeric SAP in solution. SAP concentrations were calculated based on respective peptide standard curves. For data analysis, SAP concentrations measured in the supernatant were calculated as a percentage of the specific starting concentrations of each peptide system. Statistical analysis was done using a two-way ANOVA followed by Sidak's multiple comparison test.
The stability of the hydrogels versus bacterial degradation was tested by the exposure to the bacterial strains Streptococcus mutans (S. mutans), Pseudomonas aeruginosa (P. aeruginosa) and Staphylococcus aureus (S. aureus; all from Leibniz-Institut DSMZ GmbH). Therefore, the bacterial strains were applied (10^6 CFU ml^−1) on the top of each gel (20 mg ml^−1 for P11-4 and 15 mg ml^−1 for P11-8, P11-13/14 and P11-28/29) in their respective media (Neurobasal medium for P. aeruginosa (Thermo Fisher), Tryptic Soy Broth (TYSB) medium for S. mutans and S. aureus). After 1 and 7 days of incubation at 37°C, 10 µl of each supernatant was analysed subsequent to centrifugation of the samples using the Qubit® Protein Assay. Calculations were performed as described previously for the elastase degradation study. Statistical analysis was performed with Graphpad Prism version 6.0 using a two-way ANOVA followed by Dunnett's multiple comparison test.

[4] = 15 mg ml^-1, Tris–NaCl, amplitude sweep
[5] = 20 mg ml^-1, Tris–NaCl, amplitude sweep
[6] = 30 mg ml^-1, Tris–NaCl, amplitude sweep

CC(=O)N[C@@H](CCC(N)=O)C(=O)N[C@@H](CCC(N)=O)C(=O)N[C@@H](CCCNC(=N)N)C(=O)N[C@@H](Cc1ccccc1)C(=O)N[C@@H](CCC(=O)O)C(=O)N[C@@H](Cc1c[nH]c2ccccc12)C(=O)N[C@@H](CCC(=O)O)C(=O)N[C@@H](Cc1ccccc1)C(=O)N[C@@H](CCC(=O)O)C(=O)N[C@@H](CCC(N)=O)C(=O)N[C@@H](CCC(N)=O)C(N)=O [P11-4, CH3CO-QQRFEWEFEQQ-NH2] (Ac-QQRFEWEFEQQ-NH2)
mean fibre width [1]: 32 ± 6.6 nm
yield point YP ([2]; 15 mg ml^-1, Tris–MgSO4, amplitude sweep): 0.05±0.03%
peptide hydrogel stiffness G′ [2, 4]: 2.1± 1.0 kPa
yield point YP (strain where G′ < 95% of original value) [2, 4]: 2.3±0.3%
yield point YP [2, 4]: 0.45± 0.05%
yield point YP ([2]; 15 mg ml^-1, artificial saliva, amplitude sweep up to 100% strain): 0.3 ± 0.02%
yield point YP ([2]; 15 mg ml^-1, serum-free DMEM, amplitude sweep up to 100% strain): 2.3 ± 0.44%
peptide hydrogel stiffness G′ [2, 5]: 2.4± 0.3 kPa
yield point YP (strain where G′ < 95% of original value) [2, 5]: 1.3±0.3%
peptide hydrogel stiffness G′ [2, 6]: 4.6± 1.3 kPa
yield point YP (strain where G′ < 95% of original value) [2, 6]: 1.2±0.7%
factor of increase of SAP hydrogel stiffness ([2]; doubling SAP concentration from 15 to 30 mg ml^-1, Tris–NaCl): 2
relative peptide amount in supernatant (% of peptide starting concentration) ([3]; Medium (TYSB), 1 d): 0.4± 0.1%
relative peptide amount in supernatant (% of peptide starting concentration) ([3]; Medium (TYSB), 7 d): 4.6± 2.5%
relative peptide amount in supernatant (% of peptide starting concentration) ([3]; PBS, 1 d, gel assembled in PBS, 100 µl, fluorescence 485/590 nm): 10.6± 5.7%
relative peptide amount in supernatant (% of peptide starting concentration) ([3]; PBS, 7 d, gel assembled in PBS, 100 µl, fluorescence 485/590 nm): 9.4± 4.4%
